Legend:
Assay type in all cases: biochemical
[1] = target: T1, RLuc8 (Renilla reniformis, UniProt P27652, A143M/A55T/C124A/K136R/M185V/M253L/S130A/S287L); conditions: bioluminescence spectrum, ATTO LumiFL
T1 construct: expressed in transfected cells; host or cells: COST cells (so in the source)
Procedure: (§1) As in the method for measuring bioluminescence intensity described above, luminescence spectrum was measured according to the protocol of Renilla Luciferase Assay System (Cat. No. E 2810; Promega). The luminescence spectrum was measured using ATTO LumiFL. The maximum luminescence intensities were normalized to be relative values to 1.0 upon determination of the maximum luminescence wavelength.

[2] = target: T2, RLuc8.6-535 (Renilla reniformis, UniProt P27652, A123S/A143M/A55T/C124A/D154M/D162E/E155G/I163L/K136R/M185L/M253L/S130A/S287L); parameters: expressed in transfected cells; host or cells: COST cells (so in the source); conditions: 2 μM substrate in PBS pH 7.4, cell lysate, maximum intensity over 1 second, relative value
Excerpt: (§2) The luciferases were respectively expressed in COST cells using an expression vector (pcDNA3.1(+), commercially available from Invitrogen) comprising the sequence encoding native Renilla Luciferase (RLuc) (trade name pGL4.75, commercially available from Promega) or an expression vector (trade name pcDNA3.1(+), commercially available from Invitrogen) comprising the sequence encoding a RLuc derivative RLuc8 or RLuc8.6-535 (Reference: Loening, A. M. et al., Nat. Methods, 2007, 4, 641-643.). The cells were lysed using a Renilla Luciferase Lysis Buffer (E291A, Promega), and the lysate was directly used as an enzyme solution. […] Bioluminescence was measured according to the protocol of Renilla Luciferase Assay System (Cat. No. E 2810; Promega). The luminescent substrate was dissolved in methanol to prepare a 2 mM solution. The solution was diluted to 2 μM with PBS buffer (pH 7.4), and the diluted solution was used as a substrate solution. To 200 μL of the substrate solution, 4 μL of the cell lysate containing RLuc, RLuc 8 or RLuc8.6-535 was added to start the luminescent reaction. The luminescence intensity was measured with a Berthold Lumat LB 9507 for 1 second, and indicated by the maximum luminescence intensity (I). The luminescence intensity of the native CTZ by RLuc8 was set to be 1.0, and the other bioluminescence intensities were normalized to be relative values to that of native CTZ.

[3] = target: T2, RLuc8.6-535; parameters: expressed in transfected cells; host or cells: COST cells (so in the source); conditions: bioluminescence spectrum, ATTO LumiFL
Procedure: as §1

[4] = target: T1, RLuc8; conditions: 2 μM substrate in PBS pH 7.4, cell lysate, maximum intensity over 1 second, relative value
Excerpt: as §2

T1 sequence (P27652 whole entry A55T/C124A/S130A/K136R/A143M/M185V/M253L/S287L): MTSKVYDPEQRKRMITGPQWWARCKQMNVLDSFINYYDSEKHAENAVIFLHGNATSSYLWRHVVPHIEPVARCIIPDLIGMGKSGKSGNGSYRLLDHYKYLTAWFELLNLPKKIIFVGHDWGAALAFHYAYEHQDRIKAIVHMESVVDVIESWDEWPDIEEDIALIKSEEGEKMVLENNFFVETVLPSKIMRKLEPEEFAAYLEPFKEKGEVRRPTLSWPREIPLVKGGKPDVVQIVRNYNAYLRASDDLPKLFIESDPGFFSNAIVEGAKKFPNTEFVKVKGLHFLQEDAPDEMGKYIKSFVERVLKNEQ
T2 sequence (P27652 whole entry A55T/A123S/C124A/S130A/K136R/A143M/D154M/E155G/D162E/I163L/M185L/M253L/S287L): as the sequence (P27652 whole entry A55T/C124A/S130A/K136R/A143M/M185V/M253L/S287L) above, with A123S, D154M, E155G, D162E, I163L, V185L counted along it

O=c1c(Cc2ccccc2)nc2c(Cc3ccccc3)[nH]c(-c3ccc(OCCO)cc3)cn1-2 [6-Alkyl2OH-2H-CTZ]
RLuc8 half-width (nm) [1]: [65] nm | RLuc8 maximum luminescence wavelength (nm) [1]: 413 nm | RLuc8.6-535 luminescence intensity (%) [2]: 6.24% | RLuc8.6-535 half-width (nm) [3]: [68] nm | RLuc8.6-535 maximum luminescence wavelength (nm) [3]: 407 nm | RLuc8 luminescence intensity (%) [4]: 6.21%

O=c1c(Cc2ccc(O)cc2)nc2c(Cc3ccccc3)[nH]c(-c3ccc(OCCO)cc3)cn1-2 [6-Alkyl2OH-CTZ]
RLuc8 half-width (nm) [1]: [59] nm | RLuc8 maximum luminescence wavelength (nm) [1]: 411 nm | RLuc8.6-535 luminescence intensity (%) [2]: 43.2% | RLuc8.6-535 half-width (nm) [3]: [56] nm | RLuc8.6-535 maximum luminescence wavelength (nm) [3]: 411 nm | RLuc8 luminescence intensity (%) [4]: 15.0%

CCCCOc1ccc(-c2cn3c(=O)c(Cc4ccccc4)nc-3c(Cc3ccccc3)[nH]2)cc1 [6-Alkyl3-2H-CTZ]
RLuc8 half-width (nm) [1]: [50] nm | RLuc8 maximum luminescence wavelength (nm) [1]: 411 nm | RLuc8.6-535 luminescence intensity (%) [2]: 28.4% | RLuc8.6-535 half-width (nm) [3]: [53] nm | RLuc8.6-535 maximum luminescence wavelength (nm) [3]: 413 nm | RLuc8 luminescence intensity (%) [4]: 2.00%

O=c1c(Cc2ccccc2)nc2c(Cc3ccccc3)[nH]c(-c3ccc(OCCCO)cc3)cn1-2 [6-Alkyl3OH-2H-CTZ]
RLuc8 half-width (nm) [1]: [65] nm | RLuc8 maximum luminescence wavelength (nm) [1]: 411 nm | RLuc8.6-535 luminescence intensity (%) [2]: 23.9% | RLuc8.6-535 half-width (nm) [3]: [56] nm | RLuc8.6-535 maximum luminescence wavelength (nm) [3]: 413 nm | RLuc8 luminescence intensity (%) [4]: 5.03%

COCCCOc1ccc(-c2cn3c(=O)c(Cc4ccccc4)nc-3c(Cc3ccccc3)[nH]2)cc1 [6-Alkyl3OMe-2H-CTZ]
RLuc8 half-width (nm) [1]: [49] nm | RLuc8 maximum luminescence wavelength (nm) [1]: 416 nm | RLuc8.6-535 luminescence intensity (%) [2]: 29.3% | RLuc8.6-535 half-width (nm) [3]: [53] nm | RLuc8.6-535 maximum luminescence wavelength (nm) [3]: 413 nm | RLuc8 luminescence intensity (%) [4]: 2.93%

O=c1c(Cc2ccccc2)nc2c(Cc3ccccc3)[nH]c(-c3ccc(OCCCCO)cc3)cn1-2 [6-Alkyl4OH-2H-CTZ]
RLuc8 half-width (nm) [1]: [69] nm | RLuc8 maximum luminescence wavelength (nm) [1]: 404 nm | RLuc8.6-535 luminescence intensity (%) [2]: 23.9% | RLuc8.6-535 half-width (nm) [3]: [68] nm | RLuc8.6-535 maximum luminescence wavelength (nm) [3]: 405 nm | RLuc8 luminescence intensity (%) [4]: 3.45%

O=c1c(Cc2ccc(O)cc2)nc2c(Cc3ccccc3)[nH]c(-c3ccc(OCCCCO)cc3)cn1-2 [6-Alkyl4OH-CTZ]
RLuc8 half-width (nm) [1]: [69] nm | RLuc8 maximum luminescence wavelength (nm) [1]: 404 nm | RLuc8.6-535 luminescence intensity (%) [2]: 59.8% | RLuc8.6-535 half-width (nm) [3]: [60] nm | RLuc8.6-535 maximum luminescence wavelength (nm) [3]: 412 nm | RLuc8 luminescence intensity (%) [4]: 11.8%

O=c1c(Cc2ccccc2)nc2c(Cc3ccccc3)[nH]c(-c3ccc(OCCCCCO)cc3)cn1-2 [6-Alkyl5OH-2H-CTZ]
RLuc8 half-width (nm) [1]: [70] nm | RLuc8 maximum luminescence wavelength (nm) [1]: 403 nm | RLuc8.6-535 luminescence intensity (%) [2]: 18.0% | RLuc8.6-535 half-width (nm) [3]: [68] nm | RLuc8.6-535 maximum luminescence wavelength (nm) [3]: 406 nm | RLuc8 luminescence intensity (%) [4]: 2.88%

COCc1ccc(-c2cn3c(=O)c(Cc4ccccc4)nc-3c(Cc3ccccc3)[nH]2)cc1 [6-Ether-2H-CTZ, reference compound]
RLuc8 maximum luminescence wavelength (nm) [1]: (393) nm | RLuc8.6-535 luminescence intensity (%) [2]: 2.17% | RLuc8.6-535 half-width (nm) [3]: [53] nm | RLuc8.6-535 maximum luminescence wavelength (nm) [3]: 406 nm | RLuc8 luminescence intensity (%) [4]: 0.36%

CCc1ccc(-c2cn3c(=O)c(Cc4ccccc4)nc-3c(Cc3ccccc3)[nH]2)cc1 [6-Ethyl-2H-CTZ]
RLuc8 maximum luminescence wavelength (nm) [1]: (402) nm | RLuc8.6-535 luminescence intensity (%) [2]: 18.0% | RLuc8.6-535 half-width (nm) [3]: [50] nm | RLuc8.6-535 maximum luminescence wavelength (nm) [3]: 411 nm | RLuc8 luminescence intensity (%) [4]: 0.62%

Cc1ccc(-c2cn3c(=O)c(Cc4ccccc4)nc-3c(Cc3ccccc3)[nH]2)cc1 [6-Methyl-2H-CTZ]
RLuc8 half-width (nm) [1]: [45] nm | RLuc8 maximum luminescence wavelength (nm) [1]: 408 nm | RLuc8.6-535 luminescence intensity (%) [2]: 25.3% | RLuc8.6-535 half-width (nm) [3]: [49] nm | RLuc8.6-535 maximum luminescence wavelength (nm) [3]: 411 nm | RLuc8 luminescence intensity (%) [4]: 1.44%

— patent US10239884B2, “Coelenterazine compounds and uses thereof” (KEIO UNIVERSITY, priority 2017, dated 2019)
